Measurements reported in ChEMBL document CHEMBL3232869, “Anti-inflammatory components of Euphorbia humifusa Willd” (Bioorg Med Chem Lett, 2014).
pIC50: −log10 of the molar value. Calls of active or inactive are those of the source. The rule behind the calls is not given here.

Assays:
[1] = biological target: T1, Bifunctional epoxide hydrolase 2 (Homo sapiens) (UniProt P34913); assay: Inhibition of sEH (unknown origin) assessed as substrate PHOME hydrolysis at 25 uM after 1 hr by fluorescence method
T1 sequence (whole entry): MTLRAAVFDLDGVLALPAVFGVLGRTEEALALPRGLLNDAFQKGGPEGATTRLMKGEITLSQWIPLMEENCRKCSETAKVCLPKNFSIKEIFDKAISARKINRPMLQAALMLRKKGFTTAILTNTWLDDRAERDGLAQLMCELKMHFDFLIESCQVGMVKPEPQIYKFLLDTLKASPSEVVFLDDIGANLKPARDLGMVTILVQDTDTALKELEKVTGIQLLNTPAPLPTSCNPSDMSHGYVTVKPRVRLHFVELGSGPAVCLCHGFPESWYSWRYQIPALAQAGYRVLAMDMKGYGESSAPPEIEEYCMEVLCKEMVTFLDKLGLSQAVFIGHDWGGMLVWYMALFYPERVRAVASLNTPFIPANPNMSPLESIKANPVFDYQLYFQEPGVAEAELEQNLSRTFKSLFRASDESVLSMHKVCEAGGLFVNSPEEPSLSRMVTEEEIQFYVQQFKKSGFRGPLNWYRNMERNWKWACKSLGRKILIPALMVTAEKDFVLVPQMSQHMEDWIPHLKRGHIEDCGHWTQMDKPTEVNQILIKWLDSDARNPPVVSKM

RAW264.7 [2] = assay: Antiinflammatory activity in mouse RAW264.7 cells assessed as inhibition of LPS-induced TNF-alpha secretion at 10 uM after 18 hrs by sandwich ELISA; type: functional; conditions: for inhibition at 10 µM: RAW264.7, 18 h
RAW264.7 [3] = assay: Antiinflammatory activity in mouse RAW264.7 cells assessed as inhibition of LPS-induced nitric oxide production at 10 uM after 18 hrs by griess reaction analysis; type: functional; conditions: for inhibition at 10 µM: RAW264.7, 18 h
RAW264.7 [4] = assay: Antiinflammatory activity in mouse RAW264.7 cells assessed as inhibition of LPS-induced nitric oxide production at 0.4 uM after 18 hrs by griess reaction analysis; type: functional, cell-based
RAW264.7 [5] = assay: Antiinflammatory activity in mouse RAW264.7 cells assessed as inhibition of LPS-induced TNF-alpha secretion after 18 hrs by sandwich ELISA; type: functional, cell-based; conditions: RAW264.7, 18 h
RAW264.7 [6] = assay: Antiinflammatory activity in mouse RAW264.7 cells assessed as inhibition of LPS-induced TNF-alpha secretion at 0.4 uM after 18 hrs by sandwich ELISA; type: functional, cell-based
[7] = biological target: T2, Bifunctional epoxide hydrolase 2 (Homo sapiens, UniProt P34913); assay: Inhibition of sEH (unknown origin) assessed as substrate PHOME hydrolysis after 1 hr by fluorescence method
T2 sequence (P34913 whole entry): T1 sequence (whole entry)

RAW264.7 [8] = assay: Cytotoxicity against mouse RAW264.7 cells assessed as cell viability at 50 uM after 18 hrs by MTT assay in presence of LPS; type: cell-based; conditions: raw264.7, 18 h
RAW264.7 [9] = assay: Antiinflammatory activity in mouse RAW264.7 cells assessed as inhibition of LPS-induced nitric oxide production after 18 hrs by griess reaction analysis; type: functional, cell-based; conditions: RAW264.7, 18 h

SMILES | inhibition [1] [%] | inhibition (RAW264.7 [2]) | inhibition (RAW264.7 [3]) | inhibition (RAW264.7 [4]) | pIC50 (RAW264.7 [5]) | inhibition (RAW264.7 [6]) | pIC50 [7] | Activity (RAW264.7 [8]) | inhibition at 10 µM (RAW264.7 [2]) [%] | pIC50 (RAW264.7 [9]) | inhibition at 10 µM (RAW264.7 [3]) [%]
O=c1c(O[C@@H]2O[C@H](CO)[C@@H](O)[C@H](O)[C@H]2O)c(-c2ccc(O)c(O)c2)oc2cc(O)cc(O)c12 [ISOQUERCETIN] | > 40 | Active | inactive | inactive | < 4.30 | inactive | 4.55 | Non-toxic |  |  | 
O=C(O[C@H]1[C@H](Oc2c(-c3ccc(O)c(O)c3)oc3cc(O)cc(O)c3c2=O)O[C@H](CO)[C@@H](O)[C@@H]1O)c1cc(O)c(O)c(O)c1 | > 40 |  | inactive | inactive | 4.79 | inactive | 4.74 | Non-toxic | 21.5 |  | 
O=c1c(O[C@@H]2O[C@H](CO)[C@H](O)[C@H](O)[C@H]2O)c(-c2ccc(O)c(O)c2)oc2cc(O)cc(O)c12 [HYPEROSIDE] | > 40 | Active | inactive | inactive | < 4.30 | inactive | 4.66 | Non-toxic |  | 4.31 | 
CC1=CC[C@@H](C(C)(C)O[C@@H]2O[C@H](CO[C@@H]3OC[C@H](O)[C@H](O)[C@H]3O)[C@@H](O)[C@H](O)[C@H]2O)CC1 | < 40 | Active | Active | inactive | < 4.30 | inactive |  | Non-toxic |  |  | 
O=c1oc2c(O)c(O)cc3c(=O)oc4c(O)c(O)cc1c4c23 [ELLAGIC ACID] | > 40 | Active | inactive | inactive | < 4.30 | inactive | 4.68 | Non-toxic |  | 4.45 | 
C[C@@H]1O[C@@H](OC[C@H]2O[C@@H](Oc3c(-c4ccc(O)cc4)oc4cc(O)cc(O)c4c3=O)[C@H](O)[C@@H](O)[C@@H]2O)[C@H](O)[C@H](O)[C@H]1O [NICOTIFLOROSIDE] |  | Active | inactive | inactive | 4.38 | inactive |  | Non-toxic |  | 4.34 | 
Cc1ccc(-c2cc(C(F)(F)F)nn2-c2ccc(S(N)(=O)=O)cc2)cc1 [CELECOXIB] |  |  |  |  | 5.89 |  |  |  |  | 5.74 | 
CC(=O)O[C@H]1[C@H](OC[C@H]2O[C@@H](Oc3ccc(O)cc3)[C@H](O)[C@@H](O)[C@@H]2O)O[C@@H](C)[C@H](OC(=O)c2ccc(O)cc2)[C@H]1O |  | Active | inactive | inactive | < 4.30 | inactive |  | Non-toxic |  | < 4.30 | 
COC(=O)Cc1c2c3c(cc(O)c(O)c3oc1=O)C(=O)O[C@@H]2C(=O)OC |  | Active | Active | inactive |  | inactive |  | Non-toxic |  | 4.71 | 
COC(=O)[C@H]1CC(=O)c2oc(=O)c3cc(O)c(O)c(O)c3c21 | > 40 | Active | Active | inactive | 4.67 | inactive | < 4.30 | Non-toxic |  | 4.62 | 
O=C1C[C@H](C(=O)O)c2c1oc(=O)c1cc(O)c(O)c(O)c21 | > 40 | Active | inactive | inactive | 4.67 | inactive | 4.32 | Non-toxic |  | 4.39 | 
O=c1c(O)c(-c2ccc(O)c(O)c2)oc2cc(O)cc(O)c12 [QUERCETIN] | > 40 | Active | inactive | inactive |  | inactive | 4.47 | Non-toxic |  | < 4.30 | 
O=c1c(O[C@@H]2O[C@H](CO)[C@@H](O)[C@H](O)[C@H]2O)c(-c2cc(O)c(O)c(O)c2)oc2cc(O)cc(O)c12 | > 40 | Active | Active | inactive |  | inactive | 4.76 | Non-toxic |  | 4.67 | 
O=C(O[C@@H]1O[C@@H]2COC(=O)c3cc(O)c(O)c(O)c3-c3c(cc(O)c(O)c3O)C(=O)O[C@H]([C@H]1O)[C@@H]2O)c1cc(O)c(O)c(O)c1 [CORILAGIN] | > 40 | Active | Active | inactive | 4.41 | inactive |  | Non-toxic |  | 4.60 | 
O=C(O[C@H]1[C@H](Oc2c(-c3ccc(O)cc3)oc3cc(O)cc(O)c3c2=O)O[C@H](CO)[C@@H](O)[C@@H]1O)c1cc(O)c(O)c(O)c1 | > 40 |  | inactive | inactive | 4.76 | inactive | 4.56 | Non-toxic | 21.5 |  | 
O=C(O[C@H]1[C@H](Oc2c(-c3ccc(O)cc3)oc3cc(O)cc(O)c3c2=O)O[C@H](CO)[C@@H](O)[C@@H]1OC(=O)c1cc(O)c(O)c(O)c1)c1cc(O)c(O)c(O)c1 | > 40 | Active | inactive | inactive |  | inactive | 4.62 | Non-toxic |  |  | 
COC(=O)c1cc(O)c(O)c(O)c1 [GALLIC ACID METHYL ESTER] |  | Active |  | inactive | 4.53 | inactive |  | Non-toxic |  | 4.95 | 35.1
O=C(CCc1ccc(O)cc1)c1c(O)cc(O)cc1O[C@@H]1O[C@H](CO)[C@@H](O)[C@H](O)[C@H]1O [PHLORIZIN] | > 40 |  | inactive | inactive | 4.84 | inactive | 4.38 | Non-toxic | 21.5 |  | 
COC/C=C/c1ccc(O[C@@H](CO)CO[C@@H]2O[C@H](CO)[C@@H](O)[C@H](O)[C@H]2O)c(OC)c1 | < 40 | Active | Active | inactive | 4.57 | inactive |  | Non-toxic |  | 4.54 | 
COc1cc(/C=C/CO)cc(OC)c1O[C@@H]1O[C@H](CO)[C@@H](O)[C@H](O)[C@H]1O [SYRINGIN] | < 40 | Active | Active | inactive | 4.46 | inactive |  | Non-toxic |  | 4.62 | 
C[C@@H]1O[C@@H](Oc2c(-c3ccc(O)c(O)c3)oc3cc(O)cc(O)c3c2=O)[C@H](OC(=O)c2cc(O)c(O)c(O)c2)[C@H](O)[C@H]1O | > 40 | Active | inactive | inactive | 4.58 | inactive | 4.73 | Non-toxic |  |  | 
COC/C=C/c1cc(OC)c(O[C@@H]2O[C@H](CO)[C@@H](O)[C@H](O)[C@H]2O)c(OC)c1 |  |  |  | inactive | 4.76 | inactive |  | Non-toxic | 21.5 | 4.76 | 30
OC[C@H]1O[C@@H](OCc2ccccc2)[C@H](O)[C@@H]1O |  |  | Active | inactive | 4.74 | inactive |  | Non-toxic | 21.5 | 4.61 | 
COC/C=C/c1ccc(O[C@@H]2O[C@H](CO)[C@@H](O)[C@H](O)[C@H]2O)c(OC)c1 | < 40 |  |  | inactive | 4.78 | inactive |  | Non-toxic | 21.5 | 4.72 | 32.9
